Measurements as given in the supplement of paper PMC10307832.

Assays:
Assay in all cases: relative viability (nuclei count vs DMSO), 5 days (fraction); higher = more cells survive
LU99A = system: LU99A
In short: (§1)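 One day after seeding in 1536-well plates, lung cancer cell lines were dosed by pin tool. Dosing was either single-drug or a fixed anchor-drug dose plus five library-drug doses (not always all listed) in √10 steps. After 5 days, nuclei were stained in one fix-and-stain step and counted on 4× images, and relative viability is the nuclei count of treated wells over that of vehicle wells, given as the median of duplicate plates.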

NCI-H460 = system: NCI-H460
In short: as §1

NCI-H1437 = system: NCI-H1437
In short: as §1

BEN = system: BEN
In short: as §1

NCI-H1734 = system: NCI-H1734
In short: as §1

NCI-H2085 = system: NCI-H2085
In short: as §1

NCI-H1355 = system: NCI-H1355
In short: as §1

NCI-H1650 = system: NCI-H1650
In short: as §1

NCI-H1793 = system: NCI-H1793
In short: as §1

SK-LU-1 = system: SK-LU-1
In short: as §1

NCI-H1975 = system: NCI-H1975
In short: as §1

CAL-12T = system: CAL-12T
In short: as §1

COR-L23 = system: COR-L23
In short: as §1

NCI-H441 = system: NCI-H441
In short: as §1

NCI-H1563 = system: NCI-H1563
In short: as §1

NCI-H1651 = system: NCI-H1651
In short: as §1

LOU-NH91 = system: LOU-NH91
In short: as §1

NCI-H358 = system: NCI-H358
In short: as §1

NCI-H838 = system: NCI-H838
In short: as §1

NCI-H2023 = system: NCI-H2023
In short: as §1

HCC-366 = system: HCC-366
In short: as §1

Which results are given for `CC(=O)O[C@@]12CO[C@@H]1C[C@H](O)[C@@]1(C)C(=O)[C@H](O)C3=C(C)[C@@H](OC(=O)[C@H](O)[C@@H](NC(=O)OC(C)(C)C)c4ccccc4)C[C@@](O)([C@@H](OC(=O)c4ccccc4)[C@H]21)C3(C)C` [Docetaxel] + CS(=O)(=O)N1CCN(Cc2cc3nc(-c4cccc5[nH]ncc45)nc(N4CCOCC4)c3s2)CC1 [Pictilisib] (partner 1 µM)?
relative viability (LU99A; first compound 0.0002 µM): 0.337; relative viability (LU99A; first compound 0.000632 µM): 0.249; relative viability (LU99A; first compound 0.002 µM): 0.267; relative viability (LU99A; first compound 0.006325 µM): 0.191; relative viability (LU99A; first compound 0.02 µM): 0.148; relative viability (NCI-H460; first compound 0.0002 µM): 0.351; relative viability (NCI-H460; first compound 0.000632 µM): 0.3; relative viability (NCI-H460; first compound 0.002 µM): 0.144; relative viability (NCI-H460; first compound 0.006325 µM): 0.0682; relative viability (NCI-H460; first compound 0.02 µM): 0.0373; relative viability (NCI-H1437; first compound 0.0002 µM): 0.453; relative viability (NCI-H1437; first compound 0.000632 µM): 0.366; relative viability (NCI-H1437; first compound 0.002 µM): 0.132; relative viability (NCI-H1437; first compound 0.006325 µM): 0.117; relative viability (NCI-H1437; first compound 0.02 µM): 0.0671; relative viability (BEN; first compound 0.0002 µM): 0.479; relative viability (BEN; first compound 0.000632 µM): 0.504; relative viability (BEN; first compound 0.006325 µM): 0.23; relative viability (BEN; first compound 0.02 µM): 0.169; relative viability (NCI-H1734; first compound 0.0002 µM): 0.462; relative viability (NCI-H1734; first compound 0.000632 µM): 0.387; relative viability (NCI-H1734; first compound 0.002 µM): 0.347; relative viability (NCI-H1734; first compound 0.006325 µM): 0.335; relative viability (NCI-H1734; first compound 0.02 µM): 0.213; relative viability (NCI-H2085; first compound 0.0002 µM): 0.532; relative viability (NCI-H2085; first compound 0.000632 µM): 0.467; relative viability (NCI-H2085; first compound 0.002 µM): 0.41; relative viability (NCI-H2085; first compound 0.006325 µM): 0.374; relative viability (NCI-H2085; first compound 0.02 µM): 0.237; relative viability (NCI-H1355; first compound 0.0002 µM): 0.479; relative viability (NCI-H1355; first compound 0.000632 µM): 0.426; relative viability (NCI-H1355; first compound 0.002 µM): 0.256; relative viability (NCI-H1355; first compound 0.006325 µM): 0.224; relative viability (NCI-H1355; first compound 0.02 µM): 0.179; relative viability (NCI-H1650; first compound 0.0002 µM): 0.431; relative viability (NCI-H1650; first compound 0.000632 µM): 0.289; relative viability (NCI-H1650; first compound 0.002 µM): 0.241; relative viability (NCI-H1650; first compound 0.006325 µM): 0.146; relative viability (NCI-H1650; first compound 0.02 µM): 0.13; relative viability (NCI-H1793; first compound 0.0002 µM): 0.323; relative viability (NCI-H1793; first compound 0.000632 µM): 0.369; relative viability (NCI-H1793; first compound 0.002 µM): 0.279; relative viability (NCI-H1793; first compound 0.006325 µM): 0.289; relative viability (NCI-H1793; first compound 0.02 µM): 0.204; relative viability (SK-LU-1; first compound 0.0002 µM): 0.608; relative viability (SK-LU-1; first compound 0.000632 µM): 0.305; relative viability (SK-LU-1; first compound 0.002 µM): 0.253; relative viability (SK-LU-1; first compound 0.006325 µM): 0.181; relative viability (SK-LU-1; first compound 0.02 µM): 0.171; relative viability (NCI-H1975; first compound 0.0002 µM): 0.3; relative viability (NCI-H1975; first compound 0.000632 µM): 0.261; relative viability (NCI-H1975; first compound 0.002 µM): 0.213; relative viability (NCI-H1975; first compound 0.006325 µM): 0.156; relative viability (NCI-H1975; first compound 0.02 µM): 0.121; relative viability (CAL-12T; first compound 0.0002 µM): 0.53; relative viability (CAL-12T; first compound 0.000632 µM): 0.271; relative viability (CAL-12T; first compound 0.002 µM): 0.268; relative viability (CAL-12T; first compound 0.006325 µM): 0.24; relative viability (CAL-12T; first compound 0.02 µM): 0.171; relative viability (COR-L23; first compound 0.0002 µM): 0.632; relative viability (COR-L23; first compound 0.000632 µM): 0.649; relative viability (COR-L23; first compound 0.002 µM): 0.42; relative viability (COR-L23; first compound 0.006325 µM): 0.124; relative viability (COR-L23; first compound 0.02 µM): 0.0817; relative viability (NCI-H441; first compound 0.0002 µM): 0.352; relative viability (NCI-H441; first compound 0.000632 µM): 0.32; relative viability (NCI-H441; first compound 0.002 µM): 0.198; relative viability (NCI-H441; first compound 0.006325 µM): 0.177; relative viability (NCI-H441; first compound 0.02 µM): 0.11; relative viability (NCI-H1563; first compound 0.0002 µM): 0.662; relative viability (NCI-H1563; first compound 0.000632 µM): 0.683; relative viability (NCI-H1563; first compound 0.002 µM): 0.71; relative viability (NCI-H1563; first compound 0.006325 µM): 0.564; relative viability (NCI-H1563; first compound 0.02 µM): 0.506; relative viability (NCI-H1651; first compound 0.0002 µM): 0.477; relative viability (NCI-H1651; first compound 0.000632 µM): 0.443; relative viability (NCI-H1651; first compound 0.002 µM): 0.206; relative viability (NCI-H1651; first compound 0.006325 µM): 0.095; relative viability (NCI-H1651; first compound 0.02 µM): 0.0784; relative viability (LOU-NH91; first compound 0.0002 µM): 0.524; relative viability (LOU-NH91; first compound 0.000632 µM): 0.491; relative viability (LOU-NH91; first compound 0.002 µM): 0.38; relative viability (LOU-NH91; first compound 0.006325 µM): 0.318; relative viability (LOU-NH91; first compound 0.02 µM): 0.339; relative viability (NCI-H358; first compound 0.0002 µM): 0.321; relative viability (NCI-H358; first compound 0.000632 µM): 0.34; relative viability (NCI-H358; first compound 0.002 µM): 0.283; relative viability (NCI-H358; first compound 0.02 µM): 0.157; relative viability (NCI-H838; first compound 0.0002 µM): 0.477; relative viability (NCI-H838; first compound 0.000632 µM): 0.473; relative viability (NCI-H838; first compound 0.002 µM): 0.276; relative viability (NCI-H838; first compound 0.006325 µM): 0.149; relative viability (NCI-H838; first compound 0.02 µM): 0.116; relative viability (NCI-H2023; first compound 0.0002 µM): 0.213; relative viability (NCI-H2023; first compound 0.000632 µM): 0.188; relative viability (NCI-H2023; first compound 0.002 µM): 0.142; relative viability (NCI-H2023; first compound 0.006325 µM): 0.11; relative viability (NCI-H2023; first compound 0.02 µM): 0.0766; relative viability (HCC-366; first compound 0.0002 µM): 0.0877; relative viability (HCC-366; first compound 0.002 µM): 0.0735; relative viability (HCC-366; first compound 0.006325 µM): 0.0362; relative viability (HCC-366; first compound 0.02 µM): 0.0228
